Measurements published in PubChem BioAssay (NCI).
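Interpolation was linear, between the two tested concentrations surrounding the appropriate level; five concentrations were tested over 48 hours in 96-well plates. The concentration for full growth arrest is given as TGI.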

Assays:
Experiment in all cases: DTP human tumour cell line panel, 48 h
SW-620 colon = test system: SW-620 colon
HT29 colon = test system: HT29 colon
KM20L2 colon = test system: KM20L2 colon
HOP-92 NSCLC = test system: HOP-92 NSCLC
HCT-15 colon = test system: HCT-15 colon
A549 NSCLC = test system: A549 NSCLC
MALME-3M melanoma = test system: MALME-3M melanoma
NCI-H23 lung = test system: NCI-H23 lung
KM12 colon = test system: KM12 colon
CAKI-1 renal = test system: CAKI-1 renal
SNB-19 CNS = test system: SNB-19 CNS
TK-10 renal = test system: TK-10 renal
DLD-1 colon = test system: DLD-1 colon
NCI-H522 lung = test system: NCI-H522 lung
DMS 273 small cell lung = test system: DMS 273 small cell lung
LXFL 529 NSCLC = test system: LXFL 529 NSCLC
SF-539 CNS = test system: SF-539 CNS
OVCAR-8 ovarian = test system: OVCAR-8 ovarian
RXF 393 renal = test system: RXF 393 renal
UACC-257 melanoma = test system: UACC-257 melanoma
HCT-116 colon = test system: HCT-116 colon
SK-MEL-28 melanoma = test system: SK-MEL-28 melanoma
M19-MEL melanoma = test system: M19-MEL melanoma
MOLT-4 leukemia = test system: MOLT-4 leukemia
SR leukemia = test system: SR leukemia
U251 CNS = test system: U251 CNS
UO-31 renal = test system: UO-31 renal
HCC-2998 colon = test system: HCC-2998 colon
NCI-H460 lung = test system: NCI-H460 lung
CCRF-CEM leukemia = test system: CCRF-CEM leukemia
SF-295 CNS = test system: SF-295 CNS
RPMI-8226 leukemia = test system: RPMI-8226 leukemia
SNB-78 CNS = test system: SNB-78 CNS
IGROV1 ovarian = test system: IGROV1 ovarian
EKVX NSCLC = test system: EKVX NSCLC
HL-60(TB) leukemia = test system: HL-60(TB) leukemia
XF 498 CNS = test system: XF 498 CNS
SK-MEL-5 melanoma = test system: SK-MEL-5 melanoma
A498 renal = test system: A498 renal
OVCAR-3 ovarian = test system: OVCAR-3 ovarian
UACC-62 melanoma = test system: UACC-62 melanoma
HOP-62 NSCLC = test system: HOP-62 NSCLC
SK-OV-3 ovarian = test system: SK-OV-3 ovarian
SNB-75 CNS = test system: SNB-75 CNS
OVCAR-4 ovarian = test system: OVCAR-4 ovarian
DMS 114 small cell lung = test system: DMS 114 small cell lung
M14 melanoma = test system: M14 melanoma
SK-MEL-2 melanoma = test system: SK-MEL-2 melanoma
SF-268 CNS = test system: SF-268 CNS
K-562 leukemia = test system: K-562 leukemia
SN12C renal = test system: SN12C renal
COLO 205 colon = test system: COLO 205 colon
ACHN renal = test system: ACHN renal
OVCAR-5 ovarian = test system: OVCAR-5 ovarian
786-0 renal = test system: 786-0 renal
HOP-18 NSCLC = test system: HOP-18 NSCLC
NCI-H226 lung = test system: NCI-H226 lung

## Cn1c(=O)c2nc(NCCO)cnc2n(C)c1=O
SW-620 colon
  TGI: > 100 µM
HT29 colon
  TGI: > 100 µM
KM20L2 colon
  TGI: > 100 µM
HOP-92 NSCLC
  TGI: > 100 µM
HCT-15 colon
  TGI: > 100 µM
A549 NSCLC
  TGI: > 100 µM
MALME-3M melanoma
  TGI: > 100 µM
NCI-H23 lung
  TGI: > 100 µM
KM12 colon
  TGI: > 100 µM
CAKI-1 renal
  TGI: > 100 µM
SNB-19 CNS
  TGI: > 100 µM
TK-10 renal
  TGI: > 100 µM
DLD-1 colon
  TGI: > 100 µM
NCI-H522 lung
  TGI: 46.4 µM
DMS 273 small cell lung
  TGI: > 100 µM
LXFL 529 NSCLC
  TGI: > 100 µM
SF-539 CNS
  TGI: 88.7 µM
OVCAR-8 ovarian
  TGI: > 100 µM
RXF 393 renal
  TGI: 81.5 µM
UACC-257 melanoma
  TGI: > 100 µM
HCT-116 colon
  TGI: > 100 µM
SK-MEL-28 melanoma
  TGI: > 100 µM
M19-MEL melanoma
  TGI: > 100 µM
MOLT-4 leukemia
  TGI: > 100 µM
SR leukemia
  TGI: > 100 µM
U251 CNS
  TGI: > 100 µM
UO-31 renal
  TGI: > 100 µM
HCC-2998 colon
  TGI: > 100 µM
NCI-H460 lung
  TGI: > 100 µM
CCRF-CEM leukemia
  TGI: > 100 µM
SF-295 CNS
  TGI: > 100 µM
RPMI-8226 leukemia
  TGI: > 100 µM
SNB-78 CNS
  TGI: > 100 µM
IGROV1 ovarian
  TGI: > 100 µM
EKVX NSCLC
  TGI: > 100 µM
HL-60(TB) leukemia
  TGI: 76.9 µM
XF 498 CNS
  TGI: > 100 µM
SK-MEL-5 melanoma
  TGI: > 100 µM
A498 renal
  TGI: > 100 µM
OVCAR-3 ovarian
  TGI: 57.9 µM
UACC-62 melanoma
  TGI: > 100 µM
HOP-62 NSCLC
  TGI: > 100 µM
SK-OV-3 ovarian
  TGI: > 100 µM
SNB-75 CNS
  TGI: 42.4 µM
OVCAR-4 ovarian
  TGI: > 100 µM
DMS 114 small cell lung
  TGI: > 100 µM
M14 melanoma
  TGI: > 100 µM
SK-MEL-2 melanoma
  TGI: > 100 µM
SF-268 CNS
  TGI: > 100 µM
K-562 leukemia
  TGI: > 100 µM
SN12C renal
  TGI: > 100 µM
COLO 205 colon
  TGI: > 100 µM
ACHN renal
  TGI: > 100 µM
OVCAR-5 ovarian
  TGI: > 100 µM

## CC/C(CC(=O)CCC(=O)Nc1ccc(C)c(C)c1)=N\NC(=O)C(N)=O
SW-620 colon
  TGI: > 100 µM
HT29 colon
  TGI: > 100 µM
KM20L2 colon
  TGI: > 100 µM
HOP-92 NSCLC
  TGI: > 100 µM
HCT-15 colon
  TGI: > 100 µM
A549 NSCLC
  TGI: > 100 µM
MALME-3M melanoma
  TGI: > 100 µM
NCI-H23 lung
  TGI: > 100 µM
CAKI-1 renal
  TGI: > 100 µM
SNB-19 CNS
  TGI: > 100 µM
TK-10 renal
  TGI: > 100 µM
DLD-1 colon
  TGI: > 100 µM
NCI-H522 lung
  TGI: > 100 µM
DMS 273 small cell lung
  TGI: > 100 µM
LXFL 529 NSCLC
  TGI: > 100 µM
SF-539 CNS
  TGI: > 100 µM
OVCAR-8 ovarian
  TGI: > 100 µM
UACC-257 melanoma
  TGI: > 100 µM
HCT-116 colon
  TGI: > 100 µM
SK-MEL-28 melanoma
  TGI: > 100 µM
M19-MEL melanoma
  TGI: > 100 µM
MOLT-4 leukemia
  TGI: > 100 µM
SR leukemia
  TGI: > 100 µM
U251 CNS
  TGI: > 100 µM
UO-31 renal
  TGI: > 100 µM
CCRF-CEM leukemia
  TGI: > 100 µM
SF-295 CNS
  TGI: > 100 µM
RPMI-8226 leukemia
  TGI: > 100 µM
SNB-78 CNS
  TGI: > 100 µM
IGROV1 ovarian
  TGI: > 100 µM
EKVX NSCLC
  TGI: > 100 µM
HL-60(TB) leukemia
  TGI: > 100 µM
XF 498 CNS
  TGI: > 100 µM
SK-MEL-5 melanoma
  TGI: > 100 µM
A498 renal
  TGI: > 100 µM
OVCAR-3 ovarian
  TGI: > 100 µM
UACC-62 melanoma
  TGI: > 100 µM
HOP-62 NSCLC
  TGI: > 100 µM
SK-OV-3 ovarian
  TGI: > 100 µM
SNB-75 CNS
  TGI: > 100 µM
OVCAR-4 ovarian
  TGI: > 100 µM
DMS 114 small cell lung
  TGI: > 100 µM
786-0 renal
  TGI: > 100 µM
M14 melanoma
  TGI: > 100 µM
HOP-18 NSCLC
  TGI: > 100 µM
SF-268 CNS
  TGI: > 100 µM
K-562 leukemia
  TGI: > 100 µM
SN12C renal
  TGI: > 100 µM
NCI-H226 lung
  TGI: > 100 µM
COLO 205 colon
  TGI: > 100 µM
ACHN renal
  TGI: > 100 µM
OVCAR-5 ovarian
  TGI: > 100 µM
